{"source": "patent US20250281408A1", "about": "“AMORPHOUS SOLID DISPERSIONS AND PHARMACEUTICAL COMPOSITIONS COMPRISING THE SAME” (Shenzhen Pharmacin Co., Ltd., priority 2022, published 2025)", "origin": "cited, not measured here", "key": {"[1]": {"conditions": "relative to fasted conditions, healthy subjects"}, "[2]": {"conditions": "fed conditions"}, "[3]": {"conditions": "high-fat or low-fat meal"}}, "note": "Where two headings read alike, the source gives them in different places."}
{"smiles": "CC(=O)O[C@H]1CC[C@@]2(C)C(=CC[C@@H]3[C@@H]2CC[C@]2(C)C(c4cccnc4)=CC[C@@H]32)C1", "note": "[Abiraterone Acetate]", "values": [{"measurement": "solubility in water", "result": "very poorly water soluble"}]}
{"smiles": "COc1cc2nccc(Oc3ccc(NC(=O)C4(C(=O)Nc5ccc(F)cc5)CC4)cc3)c2cc1OC", "note": "[Cabozantinib]", "values": [{"measurement": "solubility in aqueous solution / aqueous media", "result": "practically insoluble"}, {"measurement": "increase of AUC by a high-fat meal", "setting": "[1]", "result": 57, "unit": "%"}, {"measurement": "increase of Cmax by a high-fat meal", "setting": "[1]", "result": 41, "unit": "%"}]}
{"smiles": "CC1(C)CCC(CN2CCN(c3ccc(C(=O)NS(=O)(=O)c4ccc(NCC5CCOCC5)c([N+](=O)[O-])c4)c(Oc4cnc5[nH]ccc5c4)c3)CC2)=C(c2ccc(Cl)cc2)C1", "note": "[Venetoclax]", "values": [{"measurement": "solubility in water", "result": "poor water solubility"}]}
{"smiles": "CCc1cc2c(cc1N1CCC(N3CCOCC3)CC1)C(C)(C)c1[nH]c3cc(C#N)ccc3c1C2=O", "note": "[alectinib]", "values": [{"measurement": "solubility in aqueous solution / aqueous media", "result": "very hard to dissolve"}, {"measurement": "absolute bioavailability", "setting": "[2]", "result": 37, "unit": "%"}]}
{"smiles": "O=C1[C@@H]2[C@H]3CC[C@H](C3)[C@@H]2C(=O)N1C[C@@H]1CCCC[C@H]1CN1CCN(c2nsc3ccccc23)CC1", "note": "[lurasidone]", "values": [{"measurement": "solubility in water", "result": "very slightly soluble"}]}
{"smiles": "Cc1ccc(Nc2nccc(N(C)c3ccc4c(C)n(C)nc4c3)n2)cc1S(N)(=O)=O", "note": "[pazopanib]", "values": [{"measurement": "solubility in aqueous media", "setting": "above pH 4", "result": "practically insoluble"}, {"measurement": "solubility in aqueous media", "setting": "pH 1", "result": "very slightly soluble"}, {"measurement": "increase in AUC with food", "setting": "[3]", "result": "approximately 2 fold"}, {"measurement": "increase in Cmax with food", "setting": "[3]", "result": "approximately 2 fold"}]}
{"smiles": "N#Cc1ccc2[nH]cc(CCCCN3CCN(c4ccc5oc(C(N)=O)cc5c4)CC3)c2c1", "note": "[vilazodone]", "values": [{"measurement": "solubility in water", "result": "very slightly soluble"}]}
